Experimental data taken from PubChem BioAssay AID1963959 (Molecular Pharmacology Branch, DTP, NCI, 2024).

Test system: T-47D spheroids with HUVEC/MSC, viability
Assay: Anticancer human tumor T-47D cell line growth inhibition [PI3K];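 also: spheroids exposed to agents for seven days before reading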;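 as to viability, T/C: percent of DMSO vehicle control luminescence so 100% = untreated growth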
Conditions: for viability, T/C: stronger effect = lower value
Text: Combinatorial screen of targeted agents with the PI3K inhibitors inavolisib, alpelisib, duvelisib, and copanlisib in multi-cell type tumor spheroids
A high-throughput screen of multi-cell type tumor spheroids was designed to identify active combinations of targeted small molecules and PI3K pathway inhibitors. Complex spheroids include a stromal component modeled by human endothelial cells (HUVEC) and fibroblasts modeled by human mesenchymal stem cells (MSCs). The concentration ranges selected for each drug and investigational agent were based upon clinically achievable concentrations if the clinical Cmax of the agent was known.
Compounds. The drugs and investigational agents: inavolisib (NSC800729), alpelisib (NSC765974), duvelisib (NSC772469), copanlisib (NSC816437), ipatasertib (NSC767898), afuresertib (NSC778305), talazoparib (NSC767125), sapanisertib (NSC764658), selumetinib (NSC741078), tovorafenib (DAY101, NSC766906), vemurafenib (NSC761431), ravoxertinib (NSC781343), sotorasib (NSC818433), MRTX1133 (NSC 836407), abemaciclib (NSC 768073), palbociclib (NSC758247), venetoclax (NSC 766270), SY5609 (NSC837396), enzalutamide (NSC755605), and darolutamide (NSC825331), were obtained from the National Cancer Institute (NCI) Developmental Therapeutics Program Chemical Repository. The FDA-approved anticancer drug set is available from the NCI Developmental Therapeutics Program. […] The stock solutions were prepared in dimethyl sulfoxide (DMSO, Sigma-Aldrich, St. Louis, MO, cat. D2650) at 800-fold the tested concentration and stored at -70 degrees C prior to their use. All drugs and investigational agents were tested over a range starting from a high concentration at or near the clinical Cmax and decreasing in half-log increments. If the clinical Cmax for an agent had not been determined, the highest concentration tested was 10 microM.
Cell Culture. All cells were maintained in an incubator at 37 degrees C and 5% CO2 with 95% humidity. The PDC lines were cultured according to standard operating procedures established by the NCI PDMR (https://pdmr.cancer.gov/sops/default.htm). All PDCs were thawed and cultured in Matrigel-coated flasks prepared with a working solution of 1X Ham's F-12 nutrient mix, without supplementation (Invitrogen, Waltham, MA, cat. 11765054), 100 U/mL penicillin-streptomycin (Invitrogen, cat. 15140122), and 2.5% Matrigel (Corning Inc., Corning, NY, cat. 354248) for the first three passages. The 354836-022-R-J1-PDC, 475296-252-R-J1-PDC, and 997726-040-R-J2-PDC lines were cultured in 6A media, which includes advanced DMEM/F-12 (Thermo Fisher Scientific, cat. 12634028), 10 mM HEPES (Thermo Fisher Scientific, cat. 15630080), 1X GlutaMAX supplement (Thermo Fisher Scientific, cat. 35050061), 0.1 mg/mL primocin (InvivoGen, San Diego, CA, cat. ant-pm-2), 10% defined fetal bovine serum, heat inactivated (HyClone Laboratories Inc., Logan, UT, cat. SH30070.03HI), 50% L-WRN conditioned media (ATCC, cat. CRL-3276), 1.25 mM N-Acetyl-L-cysteine (Sigma-Aldrich, cat. A9165), 10 mM nicotinamide (Sigma-Aldrich, cat. N0636), 1X B-27 supplement (Thermo Fisher Scientific, cat. 17504044), 1X N-2 supplement (Thermo Fisher Scientific, cat. 17502048), and 10 microM Y-27632 dihydrochloride (Tocris Bioscience, Bristol, United Kingdom, cat. 1254). The 624824-186-R-J2-PDC line was cultured in 6C/Colon 1B media, which includes all 6A media components plus 50 ng/mL human EGF recombinant protein (Thermo Fisher Scientific, cat. PHG0311). […]

CC1(C)CCC(CN2CCN(c3ccc(C(=O)NS(=O)(=O)c4ccc(NCC5CCOCC5)c([N+](=O)[O-])c4)c(Oc4cnc5[nH]ccc5c4)c3)CC2)=C(c2ccc(Cl)cc2)C1 + COc1c(OCCCN2CCOCC2)ccc2c3n(c(=NC(=O)c4cnc(N)nc4)nc12)CCN3
IC50 (curve of first compound, second compound 0.00316 µM): > 10000 nM | IC50 (curve of first compound, second compound 0.01 µM): > 10000 nM | IC50 (curve of first compound, second compound 0.0316 µM): > 10000 nM | IC50 (curve of first compound, second compound 0.1 µM): < 31.6 nM | IC50 (curve of first compound, second compound 0.316 µM): < 31.6 nM | IC50 (curve of first compound, second compound 1 µM): < 31.6 nM | viability, T/C (second compound 0.00316 µM, first compound 0.0316 µM): 117% | viability, T/C (second compound 0.00316 µM, first compound 0.1 µM): 80.5% | viability, T/C (second compound 0.00316 µM, first compound 0.316 µM): 122% | viability, T/C (second compound 0.00316 µM, first compound 1 µM): 74% | viability, T/C (second compound 0.00316 µM, first compound 3.16 µM): 82.4% | viability, T/C (second compound 0.00316 µM, first compound 10 µM): 108% | viability, T/C (second compound 0.01 µM, first compound 0.0316 µM): 100% | viability, T/C (second compound 0.01 µM, first compound 0.1 µM): 69.8% | viability, T/C (second compound 0.01 µM, first compound 0.316 µM): 91.5% | viability, T/C (second compound 0.01 µM, first compound 1 µM): 78.6% | viability, T/C (second compound 0.01 µM, first compound 3.16 µM): 80.1% | viability, T/C (second compound 0.01 µM, first compound 10 µM): 88.1% | viability, T/C (second compound 0.0316 µM, first compound 0.0316 µM): 73% | viability, T/C (second compound 0.0316 µM, first compound 0.1 µM): 81.8% | viability, T/C (second compound 0.0316 µM, first compound 0.316 µM): 67.3% | viability, T/C (second compound 0.0316 µM, first compound 1 µM): 69.4% | viability, T/C (second compound 0.0316 µM, first compound 3.16 µM): 58.5% | viability, T/C (second compound 0.0316 µM, first compound 10 µM): 75.1% | viability, T/C (second compound 0.1 µM, first compound 0.0316 µM): 43.7% | viability, T/C (second compound 0.1 µM, first compound 0.1 µM): 42.3% | viability, T/C (second compound 0.1 µM, first compound 0.316 µM): 37.1% | viability, T/C (second compound 0.1 µM, first compound 1 µM): 38% | viability, T/C (second compound 0.1 µM, first compound 3.16 µM): 35.2% | viability, T/C (second compound 0.1 µM, first compound 10 µM): 41.4% | viability, T/C (second compound 0.316 µM, first compound 0.0316 µM): 15.6% | viability, T/C (second compound 0.316 µM, first compound 0.1 µM): 22.3% | viability, T/C (second compound 0.316 µM, first compound 0.316 µM): 17.9% | viability, T/C (second compound 0.316 µM, first compound 1 µM): 18.1% | viability, T/C (second compound 0.316 µM, first compound 3.16 µM): 14.8% | viability, T/C (second compound 0.316 µM, first compound 10 µM): 16.6% | viability, T/C (second compound 1 µM, first compound 0.0316 µM): 6.44% | viability, T/C (second compound 1 µM, first compound 0.1 µM): 6.49% | viability, T/C (second compound 1 µM, first compound 0.316 µM): 6.92% | viability, T/C (second compound 1 µM, first compound 1 µM): 7.19% | viability, T/C (second compound 1 µM, first compound 3.16 µM): 4.62% | viability, T/C (second compound 1 µM, first compound 10 µM): 9.27%

CCN1CCN(Cc2ccc(Nc3ncc(F)c(-c4cc(F)c5nc(C)n(C(C)C)c5c4)n3)nc2)CC1
viability, T/C (compound 0.00316 µM): 104% [middle of 4 runs] | viability, T/C (compound 0.01 µM): 91.4% [middle of 4 runs] | viability, T/C (compound 0.0316 µM): 102% [middle of 4 runs] | viability, T/C (compound 0.1 µM): 90.4% [middle of 4 runs] | viability, T/C (compound 0.316 µM): 90.4% [middle of 4 runs] | viability, T/C (compound 1 µM): 91.2% [middle of 4 runs] | IC50 (curve of compound): > 1000 nM
